From the CheMixHub viscosity set
“And” between values parts separate entries of the source, which are not always exact repeats. Equal values may be shown once. ± gives the uncertainty stated by the source.

Test: xn = mol fraction of the nth substance listed

C1COCCO1 + O
Conditions	viscosity
293.15 K, 101.3 kPa, x2 = 0.0459	1.306 ± 0.021 mPa·s
293.15 K, 101.3 kPa, x2 = 0.09407	1.32 ± 0.021 mPa·s
293.15 K, 101.3 kPa, x2 = 0.2053	1.399 ± 0.023 mPa·s and 1.4 ± 0.023 mPa·s
293.15 K, 101.3 kPa, x2 = 0.3758	1.621 ± 0.026 mPa·s and 1.619 ± 0.026 mPa·s
293.15 K, 101.3 kPa, x2 = 0.5701	1.982 ± 0.032 mPa·s and 1.981 ± 0.032 mPa·s
293.15 K, 101.3 kPa, x2 = 0.7952	2.264 ± 0.036 mPa·s and 2.263 ± 0.036 mPa·s
293.15 K, 101.3 kPa, x2 = 0.8661	2.06 ± 0.033 mPa·s
293.15 K, 101.3 kPa, x2 = 0.9391	1.577 ± 0.025 mPa·s and 1.576 ± 0.025 mPa·s
293.15 K, 101.3 kPa, x2 = 0.9742	1.258 ± 0.02 mPa·s and 1.259 ± 0.02 mPa·s
293.15 K, 101.33 kPa, x1 = 0.0222	1.221 ± 0.012 mPa·s
293.15 K, 101.33 kPa, x1 = 0.0486	1.464 ± 0.015 mPa·s
293.15 K, 101.33 kPa, x1 = 0.0806	1.728 ± 0.017 mPa·s
293.15 K, 101.33 kPa, x1 = 0.12	1.984 ± 0.02 mPa·s
293.15 K, 101.33 kPa, x1 = 0.143	2.092 ± 0.021 mPa·s
293.15 K, 101.33 kPa, x1 = 0.17	2.183 ± 0.022 mPa·s
293.15 K, 101.33 kPa, x1 = 0.2	2.246 ± 0.022 mPa·s
293.15 K, 101.33 kPa, x1 = 0.235	2.268 ± 0.023 mPa·s
293.15 K, 101.33 kPa, x1 = 0.25	2.266 ± 0.023 mPa·s
293.15 K, 101.33 kPa, x1 = 0.275	2.252 ± 0.023 mPa·s
293.15 K, 101.33 kPa, x1 = 0.323	2.185 ± 0.022 mPa·s
293.15 K, 101.33 kPa, x1 = 0.334	2.151 ± 0.022 mPa·s
293.15 K, 101.33 kPa, x1 = 0.38	2.072 ± 0.021 mPa·s
293.15 K, 101.33 kPa, x1 = 0.45	1.927 ± 0.019 mPa·s
293.15 K, 101.33 kPa, x1 = 0.5	1.817 ± 0.018 mPa·s
293.15 K, 101.33 kPa, x1 = 0.537	1.758 ± 0.018 mPa·s
293.15 K, 101.33 kPa, x1 = 0.648	1.569 ± 0.016 mPa·s
293.15 K, 101.33 kPa, x1 = 0.716	1.478 ± 0.015 mPa·s
293.15 K, 101.33 kPa, x1 = 0.795	1.396 ± 0.014 mPa·s
293.15 K, 101.33 kPa, x1 = 0.846	1.349 ± 0.013 mPa·s
293.15 K, 101.33 kPa, x1 = 0.918	1.312 ± 0.013 mPa·s
298 K, 101 kPa, x2 = 0.5236	1.647 ± 0.015 mPa·s
298 K, 101 kPa, x2 = 0.6752	1.886 ± 0.015 mPa·s
298 K, 101 kPa, x2 = 0.7636	1.965 ± 0.014 mPa·s
298 K, 101 kPa, x2 = 0.88	1.701 ± 0.0094 mPa·s
298 K, 101 kPa, x2 = 0.9514	1.271 ± 0.0049 mPa·s
298.15 K, 101 kPa, x1 = 0.141	1.784 ± 0.023 mPa·s
298.15 K, 101 kPa, x1 = 0.271	1.923 ± 0.025 mPa·s
298.15 K, 101.3 kPa, x2 = 0.0459	1.196 ± 0.019 mPa·s
298.15 K, 101.3 kPa, x2 = 0.09407	1.207 ± 0.019 mPa·s
298.15 K, 101.3 kPa, x2 = 0.2053	1.275 ± 0.021 mPa·s and 1.274 ± 0.021 mPa·s
298.15 K, 101.3 kPa, x2 = 0.3758	1.458 ± 0.024 mPa·s
298.15 K, 101.3 kPa, x2 = 0.5701	1.761 ± 0.028 mPa·s
298.15 K, 101.3 kPa, x2 = 0.7952	1.976 ± 0.032 mPa·s and 1.975 ± 0.032 mPa·s
298.15 K, 101.3 kPa, x2 = 0.8661	1.796 ± 0.029 mPa·s
298.15 K, 101.3 kPa, x2 = 0.9391	1.38 ± 0.022 mPa·s and 1.381 ± 0.022 mPa·s
298.15 K, 101.3 kPa, x2 = 0.9742	1.109 ± 0.018 mPa·s and 1.108 ± 0.018 mPa·s
298.15 K, 101.33 kPa, x1 = 0.0222	1.076 ± 0.011 mPa·s
298.15 K, 101.33 kPa, x1 = 0.0486	1.283 ± 0.013 mPa·s
298.15 K, 101.33 kPa, x1 = 0.0806	1.508 ± 0.015 mPa·s
298.15 K, 101.33 kPa, x1 = 0.12	1.728 ± 0.017 mPa·s
298.15 K, 101.33 kPa, x1 = 0.143	1.822 ± 0.018 mPa·s
298.15 K, 101.33 kPa, x1 = 0.17	1.901 ± 0.019 mPa·s
298.15 K, 101.33 kPa, x1 = 0.2	1.957 ± 0.02 mPa·s
298.15 K, 101.33 kPa, x1 = 0.235	1.98 ± 0.02 mPa·s
298.15 K, 101.33 kPa, x1 = 0.25	1.983 ± 0.02 mPa·s
298.15 K, 101.33 kPa, x1 = 0.275	1.96 ± 0.02 mPa·s
298.15 K, 101.33 kPa, x1 = 0.323	1.917 ± 0.019 mPa·s
298.15 K, 101.33 kPa, x1 = 0.334	1.894 ± 0.019 mPa·s
298.15 K, 101.33 kPa, x1 = 0.38	1.831 ± 0.018 mPa·s
298.15 K, 101.33 kPa, x1 = 0.45	1.715 ± 0.017 mPa·s
298.15 K, 101.33 kPa, x1 = 0.5	1.623 ± 0.016 mPa·s
298.15 K, 101.33 kPa, x1 = 0.537	1.572 ± 0.016 mPa·s
298.15 K, 101.33 kPa, x1 = 0.648	1.414 ± 0.014 mPa·s
298.15 K, 101.33 kPa, x1 = 0.716	1.336 ± 0.013 mPa·s
298.15 K, 101.33 kPa, x1 = 0.795	1.274 ± 0.013 mPa·s
298.15 K, 101.33 kPa, x1 = 0.846	1.23 ± 0.012 mPa·s
298.15 K, 101.33 kPa, x1 = 0.918	1.2 ± 0.012 mPa·s
298.15 K, 101.33 kPa, x2 = 0.1129	1.222 ± 0.03 mPa·s
298.15 K, 101.33 kPa, x2 = 0.21	1.291 ± 0.031 mPa·s
298.15 K, 101.33 kPa, x2 = 0.3108	1.384 ± 0.033 mPa·s
298.15 K, 101.33 kPa, x2 = 0.4096	1.51 ± 0.036 mPa·s
298.15 K, 101.33 kPa, x2 = 0.4986	1.629 ± 0.038 mPa·s
298.15 K, 101.33 kPa, x2 = 0.6059	1.797 ± 0.042 mPa·s
298.15 K, 101.33 kPa, x2 = 0.6983	1.913 ± 0.044 mPa·s
298.15 K, 101.33 kPa, x2 = 0.8288	1.857 ± 0.043 mPa·s
298.15 K, 101.33 kPa, x2 = 0.9021	1.57 ± 0.037 mPa·s
303.1 K, 101 kPa, x2 = 0.228	1.147 ± 0.017 mPa·s
303.1 K, 101 kPa, x2 = 0.2741	1.174 ± 0.018 mPa·s
303.1 K, 101 kPa, x2 = 0.4187	1.261 ± 0.019 mPa·s
303.1 K, 101 kPa, x2 = 0.7038	1.709 ± 0.025 mPa·s
303.1 K, 101 kPa, x2 = 0.8099	1.733 ± 0.025 mPa·s
303.1 K, 101 kPa, x2 = 0.8346	1.661 ± 0.024 mPa·s
303.1 K, 101 kPa, x2 = 0.8791	1.543 ± 0.023 mPa·s
303.1 K, 101 kPa, x2 = 0.9194	1.35 ± 0.02 mPa·s
303.1 K, 101 kPa, x2 = 0.9508	1.162 ± 0.018 mPa·s
303.1 K, 101 kPa, x2 = 0.9786	0.968 ± 0.015 mPa·s
303.15 K, 101.3 kPa, x2 = 0.0459	1.098 ± 0.018 mPa·s
303.15 K, 101.3 kPa, x2 = 0.09407	1.108 ± 0.018 mPa·s and 1.107 ± 0.018 mPa·s
